From paper PMC9280334 (Frontiers in Chemistry, 2022)
Values joined by “and” are separate entries in the source; they are usually repeats but may differ in a detail not shown here. Equal entries are not always repeated.

Experiments:
[1] = target: T1, Aβ1-42 and AChE (human recombinant AChE) (Homo sapiens, UniProt P22303); experiment: Inhibition of AChE-induced Aβ1-42 aggregation (ThT assay); format: biochemical; conditions: Aβ1-42 and AChE (0.01 u/ml), compound 100 μM, mean ± SEM of three experiments, read-out: Inhibition of AChE-induced Aβ aggregation
T1 construct: Amyloid-β protein 1–42 (Sigma A9810) was dissolved; purchased Sigma C1682 (AChE); A9810 (Aβ1-42)
T1 sequence (P22303 32-614): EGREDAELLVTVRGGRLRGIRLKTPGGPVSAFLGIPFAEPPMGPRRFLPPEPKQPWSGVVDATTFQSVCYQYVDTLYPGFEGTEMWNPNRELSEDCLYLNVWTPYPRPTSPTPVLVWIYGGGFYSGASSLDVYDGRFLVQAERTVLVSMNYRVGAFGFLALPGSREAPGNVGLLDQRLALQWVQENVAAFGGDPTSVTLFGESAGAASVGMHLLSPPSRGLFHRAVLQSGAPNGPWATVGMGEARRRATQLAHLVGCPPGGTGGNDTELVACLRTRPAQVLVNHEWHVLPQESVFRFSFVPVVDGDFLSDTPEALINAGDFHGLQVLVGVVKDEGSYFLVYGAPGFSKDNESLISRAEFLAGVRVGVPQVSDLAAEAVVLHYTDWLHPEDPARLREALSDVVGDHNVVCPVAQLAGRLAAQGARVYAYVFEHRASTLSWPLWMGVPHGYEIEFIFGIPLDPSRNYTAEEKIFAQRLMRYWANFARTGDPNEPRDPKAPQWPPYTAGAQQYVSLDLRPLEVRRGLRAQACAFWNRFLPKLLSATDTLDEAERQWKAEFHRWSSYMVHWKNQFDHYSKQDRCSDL
Experimental: Amyloid-β protein 1–42 (Sigma A9810) was dissolved in Phosphate Buffer Saline pH 7.4 (PBS, HyClone Thermo Scientific) containing ammonium hydroxide (1%). Aβ1-42 (50 μM) was incubated for 24 h at 37°C for prefibrillation.
(§1) To determine AChE-induced Aβ1-42 aggregation, Aβ1-42 (20 μl) ± human recombinant AChE (0.01 u/ml, Sigma C1682) were added to […] of PBS buffer pH 7.4 including 0.15 M NaCl and 20 μM thioflavin T (ThT). The mixture was incubated at 37°C in the absence and presence of the compounds (100 μM) and the fluorescence intensities were determined. Due to the presence of the tested compounds, inhibition of self- or AChE-induced aggregation percent was determined by the following calculation: [100-((IFi/IFo) × 100)] where IFi and IFo are the fluorescence intensities obtained for Aβ ± AChE in the presence and in the absence of inhibitors.

[2] = system: SH-SY5Y cells; experiment: Cytotoxicity on SH-SY5Y cells (MTT); format: cell-based, human; conditions: for Cytotoxic effect on SH-SY5Y cells: 1 μM; for SH-SY5Y cell viability (% of control): cytotoxic effect, 1 µM compound alone, MTT, mean ± SEM
Experimental: (§2) Cell culture chemicals were purchased from Lonza, HyClone, or Thermo Scientific. Human neuroblastoma SH-SY5Y cells were maintained in Dulbecco’s modified Eagle’s medium (DMEM) supplemented with 10% FBS, 1% L-glutamine, and 1% antibiotic mix at 37°C in a humidified atmosphere containing 5% CO2. Cell viability was determined using a thiazolyl blue tetrazolium bromide [3-(4,5-dimethyl-2-thiazolyl)-2,5-diphenyl-2H-tetrazolium bromide] (MTT) assay ([Datki et al., 2003]). SH-SY5Y cells were seeded into 384-well plates at 3,000 cells per well and treated with novel compounds at a concentration of 1 μM, 3 h prior to the addition of Aβ1–42 (5 μM). After 24 h of incubation, 5 μl of the MTT reagent (5 mg/ml) was added to each well. 40 μl of DMSO was used to dissolve formazan crystals. Absorbance values were measured at 690 and 570 nm using a BMG Omega Fluorostar microplate reader.

[3] = target: T2, AChE (electric eel) (Electrophorus electricus, UniProt O42275); experiment: biochemical; format: biochemical; conditions: for IC50: electric eel AChE, mean ± SEM of three experiments
T2 construct: purchased Sigma-Aldrich
T2 sequence (O42275 24-633): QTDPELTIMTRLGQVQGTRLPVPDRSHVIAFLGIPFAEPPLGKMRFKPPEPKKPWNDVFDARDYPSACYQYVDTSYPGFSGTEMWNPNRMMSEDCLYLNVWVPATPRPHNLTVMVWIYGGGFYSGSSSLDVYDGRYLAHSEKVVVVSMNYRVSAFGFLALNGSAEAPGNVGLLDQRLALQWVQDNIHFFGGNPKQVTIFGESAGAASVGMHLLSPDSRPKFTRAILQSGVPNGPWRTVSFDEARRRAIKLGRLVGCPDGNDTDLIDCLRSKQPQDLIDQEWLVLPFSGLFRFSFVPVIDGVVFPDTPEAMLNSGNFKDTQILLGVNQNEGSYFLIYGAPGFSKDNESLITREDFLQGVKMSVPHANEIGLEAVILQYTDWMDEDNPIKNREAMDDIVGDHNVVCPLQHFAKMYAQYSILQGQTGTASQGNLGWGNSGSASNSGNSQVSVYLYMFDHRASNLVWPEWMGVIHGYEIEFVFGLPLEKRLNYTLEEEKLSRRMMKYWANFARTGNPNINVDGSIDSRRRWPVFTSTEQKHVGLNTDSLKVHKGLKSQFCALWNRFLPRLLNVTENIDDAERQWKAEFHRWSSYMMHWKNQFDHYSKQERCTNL
Experimental: (§3) AChE, BuChE, 5,5'-dithiobis (2-nitrobenzoic acid) (DTNB), acetyl- and butyrylthiocholine iodides were purchased from Sigma-Aldrich. Five different concentrations of the corresponding compounds in ethanol-DMSO (9:1) were prepared. […] After 3 min of incubation, the substrate solution (acetylthiocholine iodide or butyrylthiocholine iodide, 0.05 M) was added and then incubated for at least 1 min at 25°C. […] The inhibition curve was obtained by plotting the percentage of enzyme activity (100% for the reference) versus the logarithm of the tested compound concentration. […]

[4] = target: T3, BuChE (equine serum) (Equus caballus, UniProt P81908); experiment: biochemical; format: biochemical; conditions: for IC50: equine serum BuChE, mean ± SEM of three experiments
T3 construct: purchased Sigma-Aldrich
T3 sequence (P81908 whole entry): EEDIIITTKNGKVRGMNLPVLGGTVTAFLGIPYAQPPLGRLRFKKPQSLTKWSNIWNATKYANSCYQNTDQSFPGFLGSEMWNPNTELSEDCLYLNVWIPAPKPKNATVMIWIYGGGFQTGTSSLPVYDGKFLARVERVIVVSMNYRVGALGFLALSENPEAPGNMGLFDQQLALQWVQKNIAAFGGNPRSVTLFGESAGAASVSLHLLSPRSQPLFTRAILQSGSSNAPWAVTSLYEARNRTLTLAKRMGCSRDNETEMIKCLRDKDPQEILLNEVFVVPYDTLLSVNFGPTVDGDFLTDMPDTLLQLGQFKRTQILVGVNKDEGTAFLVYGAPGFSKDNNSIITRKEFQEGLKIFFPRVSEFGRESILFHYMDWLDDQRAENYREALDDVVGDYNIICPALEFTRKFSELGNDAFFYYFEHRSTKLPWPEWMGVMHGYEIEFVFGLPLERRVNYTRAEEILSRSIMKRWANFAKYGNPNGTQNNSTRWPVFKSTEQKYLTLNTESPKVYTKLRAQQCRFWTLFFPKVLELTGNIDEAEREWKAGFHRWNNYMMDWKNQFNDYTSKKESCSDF
Experimental: as §3

[5] = target: T4, Aβ1-42 (Homo sapiens, UniProt P05067); experiment: Inhibition of self-induced Aβ1-42 aggregation (ThT assay); format: biochemical; conditions: for Inhibition of self-induced Aβ aggregation: Aβ1-42 20 μM, compound 100 μM, after 48 h, ThT, mean ± SEM of three experiments; for Inhibition of Aβ aggregation, fold more effective than the reference drug donepezil: self-induced Aβ aggregation, ThT assay
T4 construct: Amyloid-β protein 1–42 (Sigma A9810) was dissolved; purchased Sigma A9810
T4 sequence (P05067 672-713 limits assumed): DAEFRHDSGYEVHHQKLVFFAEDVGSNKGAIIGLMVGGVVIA
Experimental: Inhibitory properties of the compounds on self-induced and AChE-induced aggregation of amyloid-β protein 1–42 was determined using a thioflavin T (ThT)-based fluorescence assay with slight modifications ([Levine, 1993]). The ThT excitation/emission was measured at 448 nm/490 nm at 48 h using a SpectraMax® Microplate Reader. Amyloid-β protein 1–42 (Sigma A9810) was dissolved in Phosphate Buffer Saline pH 7.4 (PBS, HyClone Thermo Scientific) containing ammonium hydroxide (1%). Aβ1-42 (50 μM) was incubated for 24 h at 37°C for prefibrillation.
as §1

[6] = system: PC12 cells; experiment: Neuroprotection against H2O2-induced cell death in PC12 cells (MTT); format: cell-based; conditions: H2O2 (150 μM)-induced injury, mean ± SEM
Experimental: The cell viability was measured using MTT [3-(4,5-dimethylthiazol-2-yl)-2,5-diphenyl tetrazolium bromide] assay ([Datki et al., 2003]). PC12 cells (from the Iranian Biological Resource Center, IBRC) received different treatments, including no treatment (control), 150 μM H2O2 alone, or 150 μM H2O2 in combination with 0.1–50 μM of the tested compound. The cells were seeded at 1 × 10^4 cells/well and incubated at 37 °C under a 5% CO2 atmosphere for 24 h, then treated with the tested compound and incubated for 3 h. Next, the cells were exposed to H2O2 for 2 h again. The MTT solution (20 μl, 5 mg/ml) was next replaced with the medium and incubated for 4 h. 100 μl of DMSO was added to dissolve the formazan precipitate. Absorbance was then measured at 570 nm using a multi-mode plate reader (Biotek, Winooski, VT). Cell viability is expressed as a percentage relative to the untreated control.

[7] = system: SH-SY5Y cells; experiment: Neuroprotection against Aβ1-42-induced cytotoxicity in SH-SY5Y cells (MTT); format: cell-based, human; conditions: for SH-SY5Y cell viability (% of control): 1 µM compound before 5 μM Aβ1-42, MTT, mean ± SEM
Experimental: as §2, with “(MTT) assay ([Datki et al., 2003]).” left out

[8] = ratio of IC50 values vs Donepezil

O=c1oc2ccccc2cc1-c1ccc(OCCC[n+]2ccccc2)cc1.[Br-] [Compound 3a, 1-(3-(4-(2-Oxo-2H-chromen-3-yl)phenoxy)propyl)pyridinium Bromide]
inhibition at 100 µM [1]: 76 ± 1.6%
Cytotoxic effect on SH-SY5Y cells [2]: no cytotoxic effect
SH-SY5Y cell viability (% of control) [2]: 81.2 ± 10.0 % of control
IC50 [3]: 0.004 µM
IC50 [4]: 0.084 ± 0.004 µM
Inhibition of self-induced Aβ aggregation [5]: 73.3 ± 15.4%
Inhibition of Aβ aggregation, fold more effective than the reference drug donepezil [5]: about 2 fold
PC12 cell viability (% of control) ([6]; 0.1 μM compound): 39.4 ± 1.7 % of control
PC12 cell viability (% of control) ([6]; 1 μM compound): 42.2 ± 1.3 % of control
PC12 cell viability (% of control) ([6]; 5 μM compound): 53.6 ± 1.4 % of control
PC12 cell viability (% of control) ([6]; 10 μM compound): 55.6 ± 0.1 % of control
PC12 cell viability (% of control) ([6]; 20 μM compound): 57.4 ± 0.4 % of control
PC12 cell viability (% of control) ([6]; 50 μM compound): 58.3 ± 1.4 % of control
SH-SY5Y cell viability (% of control) [7]: 79 % of control and 79.1 ± 4.0 % of control

O=c1oc2ccc([N+](=O)[O-])cc2cc1-c1ccc(OCCC[n+]2ccccc2)cc1.[Br-] [Compound 3f, 1-(3-(4-(6-Nitro-2-oxo-2H-chromen-3-yl)phenoxy)propyl)pyridinium Bromide]
inhibition at 100 µM [1]: 87.2 ± 5.7%
Cytotoxic effect on SH-SY5Y cells [2]: no cytotoxic effect
SH-SY5Y cell viability (% of control) [2]: 83.6 ± 3.4 % of control
IC50 [3]: 0.002 µM
AChE inhibition, times more active than the standard drug Donepezil [3, 8]: 7 times
IC50 [4]: 0.024 ± 0.005 µM
Inhibition of self-induced Aβ aggregation [5]: 84.7 ± 1.6%
Inhibition of Aβ aggregation, fold more effective than the reference drug donepezil [5]: about 2 fold
PC12 cell viability (% of control) ([6]; 0.1 μM compound): 34.1 ± 1.0 % of control
PC12 cell viability (% of control) ([6]; 1 μM compound): 42.8 ± 1.4 % of control
PC12 cell viability (% of control) ([6]; 5 μM compound): 43.1 ± 1.5 % of control
PC12 cell viability (% of control) ([6]; 10 μM compound): 45.0 ± 0.8 % of control
PC12 cell viability (% of control) ([6]; 20 μM compound): 48.3 ± 0.4 % of control
PC12 cell viability (% of control) ([6]; 50 μM compound): 50.8 ± 0.6 % of control
SH-SY5Y cell viability (% of control) [7]: 89 % of control and 89.0 ± 9.8 % of control

CN(C)c1cc[n+](CCCOc2ccc(-c3cc4cc([N+](=O)[O-])ccc4oc3=O)cc2)cc1.[Br-] [Compound 3t, 4-(Dimethylamino)-1-(3-(4-(6-nitro-2-oxo-2H-chromen-3-yl)phenoxy)propyl)pyridin-1-ium Bromide]
inhibition at 100 µM [1]: 52.5 ± 4.9%
Cytotoxic effect on SH-SY5Y cells [2]: no cytotoxic effect
SH-SY5Y cell viability (% of control) [2]: 84.8 ± 6.8 % of control
IC50 [3]: 0.014 ± 0.0009 µM
IC50 [4]: 0.009 ± 0.0004 µM
BuChE inhibition, times more active than the standard drug Donepezil [4, 8]: 305 times
Inhibition of self-induced Aβ aggregation [5]: 66.4 ± 4.7%
Inhibition of Aβ aggregation, fold more effective than the reference drug donepezil [5]: about 2 fold
PC12 cell viability (% of control) ([6]; 0.1 μM compound): 38.3 ± 0.9 % of control
PC12 cell viability (% of control) ([6]; 1 μM compound): 45.3 ± 0.7 % of control
PC12 cell viability (% of control) ([6]; 5 μM compound): 53.6 ± 0.7 % of control
PC12 cell viability (% of control) ([6]; 10 μM compound): 56.3 ± 1.6 % of control
PC12 cell viability (% of control) ([6]; 20 μM compound): 68.2 ± 0.1 % of control
PC12 cell viability (% of control) ([6]; 50 μM compound): 71.8 ± 1.1 % of control
Neuroprotective effect against Aβ1-42-induced cytotoxicity in SH-SY5Y cells ([7]; 1 μM): could not protect neuronal cells
SH-SY5Y cell viability (% of control) [7]: 59.7 ± 2.8 % of control
